The values below come from the supplement of paper PMC11061612.

In assay [1] the test system is COR-L95 (Small Cell Lung Carcinoma). As to the kind of experiment: Bliss excess, mean over the matrix (fraction); higher = more synergy. The gist of the method:
(§1)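 Bliss excess equals the observed combination effect minus the expected value EA + EB − EA·EB, where EA and EB are the effects of each agent alone. Combination Emax is the second-highest inhibition within the matrix. Inhibition was scaled from CellTiter-Glo 2.0 luminescence, with 0 set by vehicle wells and 1 by blank wells, after 72 hours of two-drug dosing of cells plated in 1536-well plates.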

Assay [2] has as its system DB (B-Cell Non-Hodgkin's Lymphoma). Described as above. The gist of the method:
as §1

The test system of assay [3] is DOV13 (Ovarian Carcinoma). Described as above. The gist of the method:
as §1

The test system of assay [4] is G-292-Clone-A141B1 (Osteosarcoma). The assay is described as above. The gist of the method: as §1
The subject of assay [5] is KARPAS-1106P (B-Cell Non-Hodgkin's Lymphoma). Described as above. The gist of the method: as §1
For assay [6], the system named is KATOIII (Gastric Carcinoma). The description is as above. The gist of the method:
as §1

Assay [7] has as its system MDA-MB-157 (Breast Carcinoma). The description is as above. The gist of the method:
as §1

Assay [8] relates to MDA-MB-231 (Breast Carcinoma). Described as above. The gist of the method:
as §1

For assay [9], the system named is NCI-H1299 (Non-Small Cell Lung Carcinoma). The description is as above. The gist of the method:
as §1

The test system of assay [10] is NCI-H211 (Small Cell Lung Carcinoma). The description is as above. The gist of the method:
as §1

Assay [11] concerns OCI-AML2 (Acute Myeloid Leukemia). Described as above. The gist of the method: as §1
The test system of assay [12] is SN12C (Kidney Carcinoma). Described as above. The gist of the method:
as §1

In assay [13] the test system is SW1088 (Low Grade Glioma). The description is as above. The gist of the method:
as §1

The test system of assay [14] is G-292-Clone-A141B1 (Osteosarcoma). As to the kind of experiment: combination Emax (second highest fraction inhibited in the dose matrix, 72 h); higher = more inhibition; extreme values may be limits of the assay. The gist of the method:
as §1

The subject of assay [15] is LS-513 (Colorectal Carcinoma). Described as above. The gist of the method: as §1
The subject of assay [16] is MFH-ino (Other Solid Carcinomas). The description is as above. The gist of the method: as §1
Assay [17] concerns NALM-6 (B-Lymphoblastic Leukemia). The assay is described as above. The gist of the method: as §1
The next assay concerns NCI-H2595 (Mesothelioma). The assay is described as above. The gist of the method: as §1
Assay [18] concerns SN12C (Kidney Carcinoma). Described as above. The gist of the method: as §1
The test system of assay [19] is SW1088 (Low Grade Glioma). The description is as above. The gist of the method:
as §1

For `Cc1c2c(nn1C)CSCc1cc(n(C)n1)CSc1cc(c3ccccc3c1)OCCCc1c(C(=O)O)n(C)c3c-2c(Cl)ccc13` [AZD5991] + CC(=O)O[C@H]1C(=O)[C@@]2(C)[C@H]([C@H](OC(=O)c3ccccc3)[C@]3(O)C[C@H](OC(=O)[C@H](O)[C@@H](NC(=O)c4ccccc4)c4ccccc4)C(C)=C1C3(C)C)[C@]1(OC(C)=O)CO[C@@H]1C[C@@H]2O [Paclitaxel] (first compound max 1 µM, 7x7, partner max 3 µM), the Bliss excess in assay [1] is -0.0187; in assay [2], 0.0342; in [3], -0.0492; in assay [4], 0.0565; in assay [5] it was 0.132; in [6], -0.0298. Besides, the Bliss excess in assay [7] was 0.078; in assay [8] it was 0.0049; in assay [9], -0.0453; in assay [10] it was 0.0016; in [11] it was -0.0046; in the assay on SN12C (Kidney Carcinoma) [12], 0.0104. Besides, the Bliss excess in assay [13] was -0.0192. Further, the “combination Emax” value was found to be 0.398 in assay [14]; 0.893 in [15]; 0.416 in [16]; 0.969 in assay [17]; 0.703 in the assay on NCI-H2595 (Mesothelioma); 0.44 in the assay on SN12C (Kidney Carcinoma) [18]. Besides, the “combination Emax” value in assay [19] amounted to 0.776.
